# Laboratory results taken from EP0603240B1, “SAFENING HERBICIDAL PYRAZOLYLSULFONYLUREAS” (priority 1991, dated 1993).
# Key:
# corn [1] = assay: Example 11, Procedure II: Herbicide No. 1 + metazachlor (No. 14) with antidotes; assay type: in vivo
# Method: (§1) Containers were filled and compacted with a fumigated silt loam top soil to a depth of about 1.3 cm from the top of the container. A first container was designated as an untreated control, a second container was designated as a herbicide control, and a third container was designated as a herbicide + antidote test container. Each of the containers was seeded with a crop species. A measured amount of herbicide dispersed or dissolved in acetone was applied to a measured quantity of soil. To this same quantity of soil treated with herbicide, there was added a measured amount of antidote dispersed or dissolved in acetone. The quantity of soil treated with the herbicide and antidote was thoroughly mixed to incorporate the herbicide and antidote in the soil uniformly. The seed bed in the third container of soil was covered with the soil treated with the herbicide and antidote and the container was leveled. For each test series, the seed beds of the first and second containers were likewise covered by soil layers. the cover layer of the first container was not treated with herbicide or antidote.
# (§2) The containers were then placed on a bench in a greenhouse and sub-irrigated as required for the duration of the test. […] Plant response is measured in terms of percent injury. Antidote efficacy is indicated as the difference in plant injury by the herbicide(s) without the antidote and with the antidote.
# (§3) This procedure is the same as Procedure I, but modified in the manner that after incorporation of the chemicals (herbicide and antidote) the containers with the covered seedbed were treated with an initial overhead irrigation equivalent to 0.6 cm rainfall, then subsequently sub-irrigated as required on greenhouse benches.
# In this example, yet another α-chloroacetanilide co-herbicide, metazachlor (Herbicide No. 14) was combined with Herbicide No. 1 for investigation of the effect of various safeners on that composition. Metazachlor is the active ingredient in the commercial herbicide BUTISAN® S, used here as a 500 g/L formulation.
# corn [2] = assay: Example 2, Procedure II: dichloroacetamide antidotes against Herbicide No. 1; assay type: in vivo; details: Herbicide No. 1, Table 2
# Method: as §1, §2, §3
# In this example, a plurality of dichloroacetamide antidotes were tested for their safening efficacy against Herbicide No. 1 in corn, using Procedure II. In this test the weed was velvetleaf; barnyardgrass was not present in this test.
# corn [3] = assay: Example 4, Procedure I: Antidote Nos. 15 and 16 against Herbicide No. 1; assay type: in vivo
# Method: as §1, §2
# (§4) This example describes tests with Antidote Nos. 15 and 16 to safen Herbicide No. 1 according to Procedure I using corn and the weeds barnyardgrass and velvetleaf as the test plants.
# corn [4] = assay: Example 5, Procedure I: Herbicide No. 1 + alachlor (No. 7) with Antidote Nos. 15 and 16; assay type: in vivo; details: Herbicide Nos. 1 and 7, Table 5
# Method: as §1, §2, §4
# In the tests described in this example, the same procedure described in Example 4 was performed simultaneously therewith and under the same conditions, except that a co-herbicide, alachlor, was included in the same composition with Herbicide No. 1 and Antidote Nos. 15 and 16. Alachlor (Herbicide No. 7 herein) is the active ingredient in the commercial product LASSO® herbicide.
# [5] = system: barnyardgrass (Echinochloa crusgalli); assay: Example 9, Procedure II: Herbicide No. 1 + pretilachlor (No. 13) with antidotes; assay type: in vivo
# Method: as §1, §2, §3
# (§5) In the series of greenhouse tests described below, for routine screening purposes the herbicide/antidote compositions were tested in crop/weed combinations involving corn as the crop and either or both of the weeds barnyardgrass (Echinochloa crusgalli), a monocotyledonous weed, and velvetleaf (Abutilon theophrasti), a dicotyledonous weed. In the tables below, these weeds are indicated by the symbols "BYG" and "VL", respectively.
# (§6) In this example the safening effect on a composition comprising Herbicide No. 1 and another leading rice herbicide, i.e., Herbicide No. 13, was investigated using the same antidotes and test procedure described in the preceding example. Herbicide No. 13 is pretilachlor, active ingredient used in the commercial rice herbicides RIFIT®, SOFIT® and SOFIT® SUPER.
# [6] = system: velvetleaf (Abutilon theophrasti); assay: as above; assay type: in vivo
# Method: as §1, §2, §3, §5, §6
# corn [7] = assay: Example 25, greenhouse preemergence test: Antidote Nos. 1 and 2 against Herbicide Nos. 1-3; assay type: in vivo, Corn (Pioneer 3424 variety); details: Preemergence
# Method: The chemicals were tested in both preemergence and post-emergence modes of application. The herbicides were prepared and applied as wettable powders; dichlormid was applied as an emulsifiable concentrate, while the naphthalic anhydride was applied as a coating on the corn seed prior to planting.
# Test data from the preemergence tests are shown in Table 25A and from the post-emergence tests in Table 25B. In the tables, the concentration of chemicals is shown in terms of active ingredient in grams per hectare (G/ha); concentrations of the naphthalic anhydride were not measured per se, but were present as in conventional, normally-coated applications. Corn injury is shown in terms of percent inhibition of growth.
# corn [8] = assay: Example 15, Procedure II: Herbicide No. 1 + butylate (No. 10) with antidotes; assay type: in vivo
# Method: as §1, §2, §3
# This example describes experiments designed to investigate the antidotal efficacy of a plurality of antidotes against the herbicidal action of a combination of Herbicide No. 1 and butylate in corn and the prevalent weeds barnyardgrass and velvetleaf. The antidotes used in these experiments were Nos. 1-10, 12, 13 and 15.
# The test procedure used in these experiments was that of Procedure II described above. The antidotes were applied to a soil cover layer by pipet after spraying the herbicides onto the soil, followed by incorporation and overhead irrigation.
# corn [9] = assay: Example 12, Procedure II: Herbicide No. 1 + acetochlor (No. 6) with thirteen antidotes; assay type: in vivo
# Method in brief: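 Herbicide and antidote in acetone were mixed into silt loam used to cover the corn seed bed, alongside untreated and herbicide-only controls. After incorporation, an overhead irrigation equal to 0.6 cm rainfall was given, then sub-irrigation in a greenhouse. Injury was scored as percent; safening is the injury difference without versus with antidote.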
# [10] = Herbicide No.1 0.14 kg/ha + Herbicide No.13 2.24 kg/ha, antidote rate 2.24 kg/ha
# [11] = Herbicide No.1 0.14 kg/ha + Herbicide No.13 2.24 kg/ha, antidote rate 8.96 kg/ha
# [12] = Herbicide No.1 0.56 kg/ha + Herbicide No.13 2.24 kg/ha, antidote rate 2.24 kg/ha
# [13] = Herbicide No.1 0.56 kg/ha + Herbicide No.13 2.24 kg/ha, antidote rate 8.96 kg/ha
# [14] = Herbicide No.1 0.56 kg/ha + Herbicide No.14 3.36 kg/ha, antidote rate 2.24 kg/ha
# [15] = Herbicide No.1 0.56 kg/ha + Herbicide No.14 3.36 kg/ha, antidote rate 8.96 kg/ha
# [16] = Herbicide No.1 1.12 kg/ha + Herbicide No.14 3.36 kg/ha, antidote rate 2.24 kg/ha
# [17] = Herbicide No.1 1.12 kg/ha + Herbicide No.14 3.36 kg/ha, antidote rate 8.96 kg/ha
# [18] = Herbicide No.1 0.56 kg/ha + Herbicide No.10 6.72 kg/ha, antidote rate 2.24 kg/ha
# [19] = Herbicide No.1 0.56 kg/ha + Herbicide No.10 6.72 kg/ha, antidote rate 8.96 kg/ha
# [20] = Herbicide No.1 1.12 kg/ha + Herbicide No.10 6.72 kg/ha, antidote rate 2.24 kg/ha
# [21] = Herbicide No.1 1.12 kg/ha + Herbicide No.10 6.72 kg/ha, antidote rate 8.96 kg/ha
# [22] = Herbicide No.1 0.14 kg/ha + Herbicide No.6 2.24 kg/ha, antidote rate 2.24 kg/ha
# [23] = Herbicide No.1 0.14 kg/ha + Herbicide No.6 2.24 kg/ha, antidote rate 8.96 kg/ha
# [24] = Herbicide No.1 0.56 kg/ha + Herbicide No.6 2.24 kg/ha, antidote rate 2.24 kg/ha
# [25] = Herbicide No.1 0.56 kg/ha + Herbicide No.6 2.24 kg/ha, antidote rate 8.96 kg/ha
Structure (SMILES),"% Injury BYG [5, 10] [%]","% Injury BYG [5, 11] [%]","% Injury BYG [5, 12] [%]","% Injury BYG [5, 13] [%]","% Injury VL [6, 10] [%]","% Injury VL [6, 11] [%]","% Injury VL [6, 12] [%]","% Injury VL [6, 13] [%]",% Injury Corn (corn [1]; [14]) [%],% Injury Corn (corn [1]; [15]) [%],% Injury Corn (corn [1]; [16]) [%],% Injury Corn (corn [1]; [17]) [%],% Injury Corn (corn [8]; [18]) [%],% Injury Corn (corn [8]; [19]) [%],% Injury Corn (corn [8]; [20]) [%],% Injury Corn (corn [8]; [21]) [%],% Injury Corn (corn [9]; [22]) [%],% Injury Corn (corn [9]; [23]) [%],% Injury Corn (corn [9]; [24]) [%],% Injury Corn (corn [9]; [25]) [%],further results
"CC1(C)OC(c2ccco2)CN1C(=O)C(Cl)Cl (stereo not drawn) [Antidote No. 15, Oxazolidine, 3-(dichloroacetyl)-5-(2-furanyl)-2,2-dimethyl]",,,,,,,,,,,,,,,,,,,,,"safening of corn, assessment in words (corn [1]; Herbicides 1 and 14, Table 11): outperformed the antidotes (2 and 13) of other chemistries; safening of corn, assessment in words (corn [2]): most safening and commercial-level protection for corn, at all ratios tested; % Injury Corn (corn [3]; Herb. No. 1 4.48 kg/ha + antidote 0.56 kg/ha): 10%; % Injury Corn (corn [3]; Herb. No. 1 4.48 kg/ha + antidote 2.24 kg/ha): 13%; safening of corn, assessment in words (corn [3]; Herbicide No. 1, Table 4): substantial safening of Herbicide No. 1; safening of corn, assessment in words (corn [4]): substantial safening of corn"
C=CCN(CC=C)C(=O)C(Cl)Cl [compound 1],100,100,100,100,75,75,85,85,25,50,45,50,15,10,20,30,10,10,15,15,"% Inhibition Corn (corn [7]; Herbicide No. 1 0.25 G/ha + antidote 7.41 G/ha): 23.2%; % Inhibition Corn (corn [7]; Herbicide No. 1 0.74 G/ha + antidote 7.41 G/ha): 28.4%; % Inhibition Corn (corn [7]; Herbicide No. 1 2.5 G/ha + antidote 7.41 G/ha): 26.2%; % Inhibition Corn (corn [7]; Herbicide No. 2 0.25 G/ha + antidote 7.41 G/ha): 26.5%; % Inhibition Corn (corn [7]; Herbicide No. 2 0.74 G/ha + antidote 7.41 G/ha): 28.9%; % Inhibition Corn (corn [7]; Herbicide No. 2 2.5 G/ha + antidote 7.41 G/ha): 37.3%; % Inhibition Corn (corn [7]; Herbicide No. 3 0.07 G/ha + antidote 7.41 G/ha): 9.3%; % Inhibition Corn (corn [7]; Herbicide No. 3 0.25 G/ha + antidote 7.41 G/ha): 43.0%; % Inhibition Corn (corn [7]; Herbicide No. 3 0.74 G/ha + antidote 7.41 G/ha): 83.9%; inhibition at 7.41 g/ha (corn [7]; Zea mays, pre-emergence, antidote alone 7.41 G/ha, no herbicide, read-out: % Inhibition Corn): 21%"
O=C1OC(=O)c2cccc3cccc1c23 [compound 2],100,100,100,100,80,75,85,80,,,,,,,,,,,,,"% Inhibition Corn (corn [7]; Herbicide No. 1 0.25 G/ha + antidote as seed treatment (concentration not measured)): 18.2%; % Inhibition Corn (corn [7]; Herbicide No. 1 0.74 G/ha + antidote as seed treatment (concentration not measured)): 31.2%; % Inhibition Corn (corn [7]; Herbicide No. 2 0.25 G/ha + antidote as seed treatment (concentration not measured)): 31.5%; % Inhibition Corn (corn [7]; Herbicide No. 2 0.74 G/ha + antidote as seed treatment (concentration not measured)): 18.9%; % Inhibition Corn (corn [7]; Herbicide No. 2 2.5 G/ha + antidote as seed treatment (concentration not measured)): 31.9%; % Inhibition Corn (corn [7]; Herbicide No. 3 0.07 G/ha + antidote as seed treatment (concentration not measured)): 13.2%; % Inhibition Corn (corn [7]; Herbicide No. 3 0.25 G/ha + antidote as seed treatment (concentration not measured)): 29.3%; % Inhibition Corn (corn [7]; Herbicide No. 3 0.74 G/ha + antidote as seed treatment (concentration not measured)): 46.9%; % Inhibition Corn (corn [7]; antidote alone as seed treatment (concentration not measured), no herbicide): 17.4%"
O=C(C(Cl)Cl)N1CCOC12CCCCC2 [compound 7],100,100,100,100,80,75,85,85,,,,,,,,,,,,,
CC1(C(Cl)Cl)OCCO1 [compound 13],100,100,100,100,70,75,90,90,75,40,60,70,10,15,20,0,10,30,35,40,
